Results as given in patent US20230284994A1, “PET-CT IMAGING METHODS, CONTRAST AGENTS AND PHARMACEUTICAL COMPOSITIONS FOR USE IN SAID IMAGING METHODS” (ADIPOSS SÁRL, priority 2020, published 2023).

How the values were obtained:
[1] = tested on: brown adipose tissue; test: 18FDG PET-CT scan for brown adipose tissue in syngeneic B16F10 melanoma mouse model, confirmed by necropsy; format: in vivo, C57B1/6 mice; settings: 12 scans (six with, six without contrast agent); based on 18FDG uptake or on uptake of PET-CT contrast agent
Method: Syngeneic mouse melanoma model (with tumor metastases dissemination to the lungs) was induced by intravenous injection of B16F10 murine melanoma cancer cells in C57B1/6 mice. 19 days after cells injection, the animals were administered with ^18FDG and a PET-CT scan was performed on each animal. One day later, the PET-CT contrast agent was administered via oral route to the same animals. Then, a second ^18FDG PET-CT scan was performed. In total, 12 ^18FDG PET-CT scans were performed (six with and six without the PET-CT contrast agent). The animals were then euthanized and necropsy was performed. Assessment of the PET-CT scans for absence of ^18FDG uptake but presence of contrast enhancement due to the PET-CT contrast agent allowed easy and robust detection of brown adipose tissue, increasing the sensitivity and positive predictive value of the PET-CT scan or BAT. In total, ^18FDG uptake in BAT was present in nine out of 12 PET-CT scans. However, all mice had BAT. Based on ^18FDG uptake, the sensitivity of the PET-CT scan for BAT was 75% (FIG. 5). Based on the uptake of the PET-CT contrast agent, the sensitivity for BAT was 100%. Using the PET-CT contrast agent, the sensitivity of the PET-CT scan for BAT in mice was thus improved by 25%.

[2] = tested on: tumour metastases; test: 18FDG PET-CT scan for metastases in syngeneic B16F10 melanoma mouse model, necropsy as standard of truth; format: in vivo, C57B1/6 mice; settings: six mice, 24 metastases by necropsy; scan without (18FDG only) or with oral PET-CT contrast agent
Method: Syngeneic mouse melanoma model (with tumor metastases dissemination to the lungs) was induced by intravenous injection of B16F10 murine melanoma cancer cells in C57B1/6 mice. 19 days after cells injection, the animals were administered with ^18FDG and a PET-CT scan was performed on each animal. One day later, the PET-CT contrast agent was administered via oral route to the same animals. Then, a second ^18FDG PET-CT scan was performed. The animals were then euthanized and necropsy was performed on each animal. Assessment of the PET-CT scans for co-localization of positive contrast enhancement of ^18FDG and PET-CT contrast agent allowed discriminating metastases from brown adipose tissue (FIGS. 2a and 3a). The ^18FDG signals present in BAT, that could be interpreted as false positives (metastases), were correctly attributed to BAT, improving the specificity and positive predictive value of the PET-CT scan for tumour metastases. This was confirmed by necropsy (FIGS. 2b, c and 3b, c). In total, based on necropsy (standard of truth), the six mice presented 24 metastases (four per mouse on average). […] Without the PET-CT contrast agent, the positive predictive value PPV of the ^18FDG PET-CT scan for metastases was 85% (FIG. 4). By using the PET-CT contrast agent, the PPV was 100%. The CT contrast agent thus improves the PPV of the ^18FDG PET-CT scan by 15%.

SMILES: O=C[C@H]([18F])[C@@H](O)[C@H](O)[C@H](O)CO [^18FDG, 2-[fluorine-18]fluoro-2-deoxy-D-glucose]
- sensitivity of the 18FDG PET-CT scan for BAT [1]: 75%
- positive predictive value PPV of the 18FDG PET-CT scan for metastases [2]: 85%
